The results in this text go back to patent US20150353495A1 (PORTOLA PHARMACEUTICALS, INC., priority 2010, published 2015).

A value given as a limit tells only on which side of the number the result lay.

The target of one assay is T1, TYK2 (Homo sapiens, UniProt P29597).
T1 construct: 5 μl of catalytic domain recombinant Kinase enzyme+Tyr peptide substrate (Invitrogen, CA); purchased Invitrogen
T1 sequence (P29597 897-1176 limits assumed): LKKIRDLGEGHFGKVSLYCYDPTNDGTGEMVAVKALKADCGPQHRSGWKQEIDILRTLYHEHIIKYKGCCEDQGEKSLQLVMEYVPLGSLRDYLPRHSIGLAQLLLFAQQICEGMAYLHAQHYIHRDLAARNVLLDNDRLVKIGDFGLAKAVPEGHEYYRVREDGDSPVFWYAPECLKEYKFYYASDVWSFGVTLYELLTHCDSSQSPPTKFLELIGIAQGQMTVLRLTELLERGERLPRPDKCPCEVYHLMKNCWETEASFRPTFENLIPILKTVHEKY
The experiment in a line: Z'-LYTE kinase assay TYK2. It is filed as biochemical. Summed up: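 Recombinant catalytic-domain TYK2 with Tyr6 peptide in Z′-LYTE FRET format, 1% DMSO final, kinase reaction 1 h at room temperature, then protease development 1 h. Fluorescence read at 445/520 nm (excitation 400 nm), percent phosphorylation vs no-inhibitor control, IC50 from 4-parameter logistic fit.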

A further assay has as its target T2, JAK2 (Homo sapiens, UniProt O60674).
T2 construct: 5 μl of catalytic domain recombinant Kinase enzyme+Tyr peptide substrate (Invitrogen, CA); purchased Invitrogen
The assay is described as follows: Z'-LYTE kinase assay JAK2. It is filed as biochemical. A digest of the protocol: (§1)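 Catalytic-domain recombinant kinase was incubated with Tyr6 FRET peptide, ATP and compound (1% DMSO final) for 1 h at room temperature. Protease development followed for 1 h, cleaving only non-phosphorylated peptide. Inhibition of phosphorylation was read as coumarin/fluorescein FRET fluorescence.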

The subject of assay [1] is JAK1/3 signaling to STAT6 in Ramos B cells. The assay is described as follows: IL4 stimulation of JAK1/3 signaling to STAT6 in Ramos B cells (pSTAT6 Y641, FACS). It is filed as cell-based. Conditions: Homo sapiens; for inhibition at 0.2 µM: 0.2 uM compound, read-out: IL-4/STAT6 in Ramos Percent Inhibition at 0.2 uM; for inhibition at 1 µM: 1.0 uM compound, read-out: IL-4/STAT6 in Ramos Percent Inhibition at 1.0 uM. Summed up: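 Ramos cells in 10% FCS medium were pre-treated 1 h with compound, stimulated 15 min with 15 ng IL4, fixed in 2% paraformaldehyde and methanol-permeabilized. Intracellular phospho-STAT6 Y641 was stained with PE-conjugated antibody and quantified by flow cytometry.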

In the next assay the target is T3, JAK3 (Homo sapiens, UniProt P52333).
T3 construct: 5 μl of catalytic domain recombinant Kinase enzyme+Tyr peptide substrate (Invitrogen, CA); purchased Invitrogen
T3 sequence (P52333 822-1111 limits assumed): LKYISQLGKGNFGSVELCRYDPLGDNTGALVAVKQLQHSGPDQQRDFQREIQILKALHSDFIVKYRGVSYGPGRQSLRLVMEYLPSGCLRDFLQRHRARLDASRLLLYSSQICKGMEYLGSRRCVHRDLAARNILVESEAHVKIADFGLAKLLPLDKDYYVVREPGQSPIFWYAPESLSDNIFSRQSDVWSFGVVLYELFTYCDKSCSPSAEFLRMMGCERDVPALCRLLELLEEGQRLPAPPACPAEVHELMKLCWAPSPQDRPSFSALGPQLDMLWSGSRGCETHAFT
The assay is described as follows: Z'-LYTE kinase assay JAK3. It is filed as biochemical. A digest of the protocol:
as §1

Assay [2] relates to JAK1/3 signaling to STAT5 in primary T cells. The assay is described as follows: IL2 stimulation of JAK1/3 signaling to STAT5 in primary T cells (pSTAT5 Y694, FACS). The settings on record: T-cell; for inhibition at 0.2 µM: 0.2 uM compound, read-out: IL-2/STAT5 Percent Inhibition at 0.2 uM; for inhibition at 1 µM: 1.0 μM compound, read-out: IL-2/STAT5 Percent Inhibition at 1.0 μM. It is filed as cell-based. On the procedure:
IL2 Stimulation of JAK1/3 Signaling to STAT5 in Primary T Cells:
The effect of JAK inhibitors on cytokine signaling pathways utilizing JAK3 was determined using an IL2 stimulation assay. IL2 engages a receptor complex that contains the IL2 receptor alpha and beta subunits, and the common gamma chain, to initiate activation of JAK1 and JAK3 leading to phosphorylation of STAT5 at tyrosine position 694. Lymphocytes are isolated from heparinized whole blood over a ficoll gradient, then resuspended in tissue culture media containing 10% fetal calf serum at 10×10̂6 cells/ml. 100 μl aliquots are pre-treated for 1 hour with various concentrations of compound, and then stimulated for 12 minutes with 100 U/ml IL2. The signaling reaction is terminated by fixing in 2% paraformaldehyde for 10 minutes at room temperature. Fixed cells are then washed and permeablized by suspension in 50% methanol (in PBS) at −80° C. Following overnight incubation at 4° C., cells are washed and resuspended in PBS containing 0.5% bovine serum albumin containing CD3-APC and pSTAT5 Y694-PE conjugated antibodies. After 1 hour incubation, cells are washed and the extent of STAT5 phosphorlyation in T cells is measured by FACS analysis.

The target in the next assay is T4, JAK1 (Homo sapiens, UniProt P23458).
T4 construct: 5 μl of catalytic domain recombinant Kinase enzyme+Tyr peptide substrate (Invitrogen, CA); purchased Invitrogen
T4 sequence (P23458 875-1153 limits assumed): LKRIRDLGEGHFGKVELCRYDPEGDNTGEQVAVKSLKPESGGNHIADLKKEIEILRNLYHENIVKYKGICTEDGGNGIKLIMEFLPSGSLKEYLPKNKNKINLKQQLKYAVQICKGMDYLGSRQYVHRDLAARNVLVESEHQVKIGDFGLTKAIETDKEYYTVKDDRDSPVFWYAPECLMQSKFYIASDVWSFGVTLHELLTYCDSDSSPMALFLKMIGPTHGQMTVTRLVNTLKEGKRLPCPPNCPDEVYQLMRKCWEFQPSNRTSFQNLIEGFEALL
The assay is described as follows: Z'-LYTE kinase assay JAK1. It is filed as biochemical. A digest of the protocol: as §1

T2 sequence (O60674 849-1124 limits assumed): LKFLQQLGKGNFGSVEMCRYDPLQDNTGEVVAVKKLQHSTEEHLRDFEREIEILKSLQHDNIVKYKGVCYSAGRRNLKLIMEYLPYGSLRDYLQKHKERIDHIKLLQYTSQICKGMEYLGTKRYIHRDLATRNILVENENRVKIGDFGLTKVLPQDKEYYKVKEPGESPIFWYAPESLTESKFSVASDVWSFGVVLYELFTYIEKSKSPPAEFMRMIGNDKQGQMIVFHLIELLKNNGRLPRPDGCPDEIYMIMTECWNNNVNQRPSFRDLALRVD

Consider `CC(=O)N1CCN(c2ccc(Nc3cc(N[C@H](C)c4ccccc4)c(C(N)=O)cn3)cc2)CC1` [Example 7, (R)-6-(4-(4-acetylpiperazin-1-yl)phenylamino)-4-(1-phenylethylamino)nicotinamide], for which the half-inhibitory concentration (IC50) (usually the concentration that gives 50% inhibition) at TYK2 was over 1000 nM; at JAK2 it was 100 to 1000 nM; against JAK3, 1 to 10 nM; against JAK1, 100 to 1000 nM. In addition, the figures for the inhibition at 0.2 µM in assay [1] and in assay [2] were 10% and 29%, respectively. The results for the inhibition at 1 µM in assay [1] and in assay [2] were 40% and 74%, respectively.
In the case of `NC(=O)c1cnc(Nc2ccc(C(=O)N3CCCC3)cc2)cc1NCc1ccccc1` [Example 39, 4-(benzylamino)-6-(4-(pyrrolidine-1-carbonyl)phenylamino)nicotinamide], the IC50 on TYK2 lay within 100 to 1000 nM; at JAK2, 100 to 1000 nM; at JAK3 it was 1 to 10 nM; on JAK1, 100 to 1000 nM. The inhibition at 0.2 µM in assay [1] came out at 47%; in assay [2], 37%. Further, the inhibition at 1 µM is 52% in assay [1] and 65% in assay [2].
As to `NC(=O)c1cnc(Nc2cccc(OCCN3CCCC3)c2)cc1N[C@H](CO)c1ccccc1` [Example 59, (S)-4-(2-hydroxy-1-phenylethylamino)-6-(3-(2-(pyrrolidin-1-yl)ethoxy)phenylamino)nicotinamide], the IC50 against TYK2 is over 1000 nM; against JAK2 it was 100 to 1000 nM; against JAK3 it was 1 to 10 nM; at JAK1, over 1000 nM. Also, the inhibition at 0.2 µM in assay [1] turned out to be 11%; in assay [2], 12%. Also, the figures for the inhibition at 1 µM in assay [1] and in assay [2] were 27% and 50%, respectively.
Turning to `Cc1cc(Nc2cc(NCc3cccc(F)c3)c(C(N)=O)cn2)ccc1N1CCCC1=O` [Example 61, 4-(3-fluorobenzylamino)-6-(3-methyl-4-(2-oxopyrrolidin-1-yl)phenylamino)nicotinamide], the IC50 was 100 to 1000 nM at TYK2, 10 to 100 nM at JAK2, 1 to 10 nM at JAK3 and 100 to 1000 nM against JAK1. In addition, the inhibition at 0.2 µM in assay [1] is 40%; in assay [2] it was 39%. Also, the inhibition at 1 µM in assay [1] was found to be 60%; in assay [2], 67%.
`NC(=O)c1cnc(Nc2ccc(N3CCOCC3)cc2)cc1NCc1cccc(F)c1` [Example 67, 4-(3-fluorobenzylamino)-6-(4-morpholinophenylamino)nicotinamide]: the IC50 fell in the range of 100 to 1000 nM on TYK2, 10 to 100 nM at JAK2, 1 to 10 nM against JAK3 and 100 to 1000 nM on JAK1. The inhibition at 0.2 µM came out at 48% in assay [1] and 61% in assay [2]. Further, the inhibition at 1 µM in assay [1] was found to be 69%; in assay [2], 89%.
In the case of `CCC(=O)N1CCC(c2ccc(Nc3cc(NCc4ccccc4F)c(C(N)=O)cn3)cc2)CC1` [Example 79], the half-inhibitory concentration (IC50) on TYK2 fell in the range of 100 to 1000 nM; against JAK2, 100 to 1000 nM; on JAK3, 10 to 100 nM; against JAK1, 100 to 1000 nM. Moreover, the inhibition at 0.2 µM in assay [1] was determined as 20%; in assay [2] it was 53%. In addition, the inhibition at 1 µM is 43% in assay [1] and 73% in assay [2].
For `NC(=O)c1cnc(Nc2ccc(C(=O)N3CCC3)cc2)cc1NCc1c(F)cccc1F` [Example 105, 6-(4-(azetidine-1-carbonyl)phenylamino)-4-(2,6-difluorobenzylamino)nicotinamide], the half-maximal inhibitory concentration (IC50) lay within 10 to 100 nM at TYK2, 10 to 100 nM at JAK2, 1 to 10 nM against JAK3 and 10 to 100 nM against JAK1. For the same compound, the inhibition at 0.2 µM in assay [1] was determined as 53%; in assay [2] it was 72%. Also, the inhibition at 1 µM in assay [1] amounted to 88%; in assay [2] it was 99%.
Regarding `CN1CCC(c2ccc(Nc3cc(NCc4ccccc4F)c(C(N)=O)cn3)cc2)CC1` [Example 107, 4-(2-fluorobenzylamino)-6-(4-(1-methylpiperidin-4-yl)phenylamino)nicotinamide], the IC50 was in the range of 100 to 1000 nM against TYK2, 100 to 1000 nM at JAK2, 1 to 10 nM on JAK3 and 100 to 1000 nM at JAK1. Besides, the figures for the inhibition at 0.2 µM in assay [1] and in assay [2] were 43% and 58%, respectively. Besides, the inhibition at 1 µM in assay [1] was 73%; in assay [2] it was 82%.
Turning to `NC(=O)c1cnc(Nc2ccc(C3CCN(C(=O)C4CCOCC4)CC3)cc2)cc1NCc1ccccc1F` [Example 119, 4-(2-fluorobenzylamino)-6-(4-(1-(tetrahydro-2H-pyran-4-carbonyl)piperidin-4-yl)phenylamino)nicotinamide], the IC50 on TYK2 lay within 100 to 1000 nM; against JAK2, 10 to 100 nM; on JAK3 it was 1 to 10 nM; against JAK1, 100 to 1000 nM. The results for the inhibition at 0.2 µM in assay [1] and in assay [2] were 17% and 54%, respectively. Also, the inhibition at 1 µM in assay [1] worked out at 47%; in assay [2] it was 83%.
In the case of `NC(=O)c1cnc(Nc2cccc(C(=O)N3CCCCC3)c2)cc1NCc1ccccc1` [Example 249, 4-(benzylamino)-6-(3-(piperidine-1-carbonyl)phenylamino)nicotinamide], the IC50 against TYK2 was over 1000 nM; against JAK2 it was 100 to 1000 nM; on JAK3, 10 to 100 nM; against JAK1, 100 to 1000 nM. For the same compound, the inhibition at 0.2 µM in assay [1] was found to be 23%; in assay [2], 12%. Moreover, the inhibition at 1 µM was 32% in assay [1] and 29% in assay [2].
In the case of `NC(=O)c1cnc(Nc2ccc(N3CCOCC3)cc2)cc1NCc1ccccc1` [Example 250, 4-(benzylamino)-6-(4-morpholinophenylamino)nicotinamide], the IC50 is over 1000 nM against TYK2, 100 to 1000 nM at JAK2, 1 to 10 nM against JAK3 and over 1000 nM against JAK1. Besides, the inhibition at 0.2 µM in assay [1] worked out at 11%; in assay [2] it was 18%. The inhibition at 1 µM turned out to be 26% in assay [1] and 50% in assay [2].
Consider `Cc1cc(Nc2cc(NCc3cccc4[nH]ccc34)c(C(N)=O)cn2)ccc1C(=O)N1CCCC1` [Example 461, 4-((1H-indol-4-yl)methylamino)-6-(3-methyl-4-(pyrrolidine-1-carbonyl)phenylamino)nicotinamide], for which the IC50 against TYK2 was 1 to 10 nM; against JAK2, under 1 nM; against JAK3, under 1 nM; on JAK1, 1 to 10 nM. Also, the inhibition at 0.2 µM in assay [2] turned out to be 94%. In assay [2], the inhibition at 1 µM is 101%.
Consider `Cc1cc(Nc2cc(NCc3cccc4cc[nH]c34)c(C(N)=O)cn2)ccc1C(=O)N1CCCC1` [Example 464, 4-((1H-indol-7-yl)methylamino)-6-(3-methyl-4-(pyrrolidine-1-carbonyl)phenylamino)nicotinamide], for which the concentration for half-maximal inhibition (IC50) against TYK2 was over 1000 nM; on JAK2 it was 10 to 100 nM; against JAK3, 1 to 10 nM; on JAK1 it was over 1000 nM. The inhibition at 0.2 µM in assay [2] is 22%. For the same compound, the inhibition at 1 µM in assay [2] was found to be 55%.
